Measurements from article PMC8397297 (ACS Chemical Neuroscience, 2021).

Columns and labels:
mGAT1 [1] = biological target: T1, mGAT1 (Mus musculus, UniProt P31648); test: [3H]GABA uptake assay in HEK-293 cells stably expressing mGAT1; type: cell-based; conditions: for remaining [3H]GABA uptake mGAT1: in the presence of 100 μM inhibitor; for IC50: [3H]GABA uptake, read-out: pIC50 ± SEM mGAT1 (converted)
T1 construct: expressed in transfected cells; host or cells: HEK-293

mGAT2 = biological target: T2, mGAT2 (Mus musculus, UniProt P31651); test: [3H]GABA uptake assay in HEK-293 cells stably expressing mGAT2; type: cell-based; conditions: for remaining [3H]GABA uptake mGAT2: in the presence of 100 μM inhibitor; for IC50: [3H]GABA uptake, read-out: pIC50 ± SEM mGAT2 (converted)
T2 construct: expressed in transfected cells; host or cells: HEK-293
T2 sequence (P31651 1-614): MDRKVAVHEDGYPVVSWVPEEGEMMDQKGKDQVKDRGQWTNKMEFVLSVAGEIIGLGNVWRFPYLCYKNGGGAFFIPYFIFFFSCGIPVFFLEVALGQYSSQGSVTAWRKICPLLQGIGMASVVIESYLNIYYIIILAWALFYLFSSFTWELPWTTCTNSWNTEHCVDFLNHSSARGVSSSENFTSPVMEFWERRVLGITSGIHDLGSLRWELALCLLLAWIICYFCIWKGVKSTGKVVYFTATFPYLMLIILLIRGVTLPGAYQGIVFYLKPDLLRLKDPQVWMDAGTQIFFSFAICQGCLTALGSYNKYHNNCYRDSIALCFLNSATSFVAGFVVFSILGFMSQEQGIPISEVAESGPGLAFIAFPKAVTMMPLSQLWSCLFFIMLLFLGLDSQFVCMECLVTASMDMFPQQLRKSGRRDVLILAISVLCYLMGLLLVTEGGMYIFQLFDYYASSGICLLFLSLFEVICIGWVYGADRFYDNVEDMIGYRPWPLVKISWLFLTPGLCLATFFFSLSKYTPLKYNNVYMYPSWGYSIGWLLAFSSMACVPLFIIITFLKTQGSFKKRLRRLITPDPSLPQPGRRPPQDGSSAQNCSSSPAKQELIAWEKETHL

mGAT3 = biological target: T3, mGAT3 (Mus musculus, UniProt P31649); test: [3H]GABA uptake assay in HEK-293 cells stably expressing mGAT3; type: cell-based; conditions: for IC50: [3H]GABA uptake, read-out: pIC50 ± SEM mGAT3 (converted); for remaining [3H]GABA uptake mGAT3: in the presence of 100 μM inhibitor
T3 construct: expressed in transfected cells; host or cells: HEK-293
T3 sequence (P31649 1-602): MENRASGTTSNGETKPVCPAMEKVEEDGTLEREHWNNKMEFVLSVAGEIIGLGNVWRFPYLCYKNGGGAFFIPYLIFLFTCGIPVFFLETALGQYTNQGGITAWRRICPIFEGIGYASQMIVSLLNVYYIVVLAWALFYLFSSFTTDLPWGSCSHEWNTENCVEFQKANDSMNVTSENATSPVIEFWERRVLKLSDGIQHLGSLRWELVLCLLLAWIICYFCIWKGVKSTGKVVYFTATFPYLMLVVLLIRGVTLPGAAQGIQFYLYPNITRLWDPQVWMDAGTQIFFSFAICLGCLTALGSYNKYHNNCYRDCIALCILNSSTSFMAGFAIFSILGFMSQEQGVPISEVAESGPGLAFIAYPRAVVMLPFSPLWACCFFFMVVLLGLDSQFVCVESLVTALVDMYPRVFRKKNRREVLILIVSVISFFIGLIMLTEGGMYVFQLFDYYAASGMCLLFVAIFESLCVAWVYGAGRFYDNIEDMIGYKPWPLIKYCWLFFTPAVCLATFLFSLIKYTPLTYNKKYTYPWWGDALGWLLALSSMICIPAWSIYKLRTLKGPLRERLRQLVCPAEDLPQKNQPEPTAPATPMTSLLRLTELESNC

mGAT4 = biological target: T4, mGAT4 (Mus musculus, UniProt P31650); test: [3H]GABA uptake assay in HEK-293 cells stably expressing mGAT4; type: cell-based; conditions: for IC50: [3H]GABA uptake, read-out: pIC50 ± SEM mGAT4 (converted); for remaining [3H]GABA uptake mGAT4: in the presence of 100 μM inhibitor
T4 construct: expressed in transfected cells; host or cells: HEK-293
T4 sequence (P31650 1-627): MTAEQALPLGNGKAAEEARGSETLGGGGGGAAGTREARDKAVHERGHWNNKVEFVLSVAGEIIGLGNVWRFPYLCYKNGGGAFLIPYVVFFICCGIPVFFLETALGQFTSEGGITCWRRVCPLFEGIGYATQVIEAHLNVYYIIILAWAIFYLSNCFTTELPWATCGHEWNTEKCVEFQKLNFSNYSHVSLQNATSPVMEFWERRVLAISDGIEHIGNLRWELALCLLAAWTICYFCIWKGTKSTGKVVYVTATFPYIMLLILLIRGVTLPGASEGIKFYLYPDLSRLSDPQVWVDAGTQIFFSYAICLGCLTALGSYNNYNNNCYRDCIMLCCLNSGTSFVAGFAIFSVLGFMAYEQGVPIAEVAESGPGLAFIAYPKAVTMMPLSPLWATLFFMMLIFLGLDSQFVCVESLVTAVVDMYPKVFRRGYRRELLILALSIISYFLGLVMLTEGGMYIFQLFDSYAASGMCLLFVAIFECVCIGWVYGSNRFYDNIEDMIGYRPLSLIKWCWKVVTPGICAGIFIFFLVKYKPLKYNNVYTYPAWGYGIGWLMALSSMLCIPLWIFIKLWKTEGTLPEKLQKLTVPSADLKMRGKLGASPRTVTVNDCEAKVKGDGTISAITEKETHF

mGAT1 [2] = biological target: T1, mGAT1; test: competitive MS binding assay with NO711 as unlabeled marker (LC-ESI-MS/MS); conditions: for remaining NO711 binding mGAT1: in the presence of 100 μM inhibitor; for Ki: MS binding assay, read-out: pKi ± SEM mGAT1 (converted)
Description: Specific binding affinity toward mGAT1 was determined via a competitive mass spectrometry (MS) binding assay quantified by liquid chromatography–electrospray ionization tandem mass spectrometry (LC–ESI-MS/MS) with NO711 as an unlabeled marker.[50]
MS binding assays for mGAT1 were performed as described earlier.[50] Inhibition of mGAT1 binding by the synthesized compounds was determined in MS binding assays at a screening concentration of 100 μM and analyzed by LC–ESI-MS/MS.

| SMILES | remaining [3H]GABA uptake mGAT1 (mGAT1 [1]) | remaining [3H]GABA uptake mGAT2 (mGAT2) | IC50 (mGAT3) [µM] | IC50 (mGAT4) [µM] | remaining NO711 binding mGAT1 (mGAT1 [2]) | IC50 (mGAT1 [1]) [µM] | IC50 (mGAT2) [µM] | Ki (mGAT1 [2]) [µM] | remaining [3H]GABA uptake mGAT3 (mGAT3) | remaining [3H]GABA uptake mGAT4 (mGAT4) |
| --- | --- | --- | --- | --- | --- | --- | --- | --- | --- | --- |
| C[C@@H](O)C[C@H](C(=O)NCc1ccc(Cl)cc1)N(C)CCC=C1c2ccccc2CCc2ccccc21 (relative stereo) [2RS,4RS-39b, N-(4-Chlorobenzyl)-2-((3-(10,11-dihydro-5H-dibenzo[a,d][7]annulen-5-ylidene)propyl)(methyl)amino)-4-hydroxypentanamide] | 100 μM: 56% | 100 μM: 73% | 24 | 9.12 | 100 μM: 84% |  |  |  |  |  |
| CN(CCON=C(c1ccccc1)c1ccccc1)C(CO)C(=O)NCc1ccc(F)cc1 (centres unmarked) [Compound 59c, 2-((2-(((Diphenylmethylene)amino)oxy)ethyl)(methyl)amino)-N-(4-fluorobenzyl)-3-hydroxypropanamide] |  |  | 19.5 | 16.6 | 100 μM: 84% | 26.3 | 17 |  |  |  |
| CN(CCON=C(c1ccccc1)c1ccccc1)C(CCN)C(=O)NCc1ccc(Cl)c(Cl)c1 (centres unmarked) [Compound 50b, 4-Amino-N-[(3,4-dichlorophenyl)methyl]-2-[(2-{[(diphenylmethylidene)amino]oxy}ethyl)(methyl)amino]butanamide] |  |  | 4.79 | 4.9 |  | 12.3 | 4.9 | 33.1 |  |  |
| CC(=O)NCCC(C(=O)NCc1ccccc1Cl)N(C)CCON=C(c1ccccc1)c1ccccc1 (centres unmarked) [Compound 51a, N-[(2-Chlorophenyl)methyl]-2-[(2-{[(diphenylmethylidene)amino]oxy}ethyl)(methyl)amino]-4-acetamidobutanamide] |  |  | 9.33 | 12.6 | 100 μM: 74% | 18.2 | 13.2 |  |  |  |
| Cc1ccsc1C(=CCCN(C)C(C)C(=O)O)c1sccc1C (centres unmarked) [Compound 75, 2-((4,4-Bis(3-methylthiophen-2-yl)but-3-en-1-yl)(methyl)amino)propanoic Acid] | 100 μM: 71% | 100 μM: 59% |  |  | 100 μM: 81% |  |  |  | 100 μM: 52% | 100 μM: 60% |
| Cc1ccsc1C(=CCCN(C)C(C)C(=O)NCc1ccccc1)c1sccc1C (centres unmarked) [Compound 67, N-Benzyl-2-((4,4-bis(3-methylthiophen-2-yl)but-3-en-1-yl)(methyl)amino)propanamide] |  |  | 13.5 | 12 | 100 μM: 83% | 24.5 | 13.2 |  |  |  |
| CC(C(=O)NCc1ccccc1)N(C)CCON=C(c1ccccc1)c1ccccc1 (centres unmarked) [Compound 65, N-Benzyl-2-((2-(((diphenylmethylene)amino)oxy)ethyl)(methyl)amino)propanamide] |  |  | 13.8 | 26.3 | 100 μM: 104% | 58.9 | 26.3 |  |  |  |
| CC(O)CC(C(=O)NCc1ccccc1)N1CCC(=C2c3ccccc3CCc3ccccc32)CC1 (centres unmarked) [2RS,4RS-43a, N-Benzyl-2-(4-(10,11-dihydro-5H-dibenzo[a,d][7]annulen-5-ylidene)piperidin-1-yl)-4-hydroxypentanamide] |  |  | 21.4 | 26.3 | 100 μM: 77% | 17 | 56.2 |  |  |  |
| CN(CCON=C(c1ccccc1)c1ccccc1)C(CCO)C(=O)NCc1ccccc1 (centres unmarked) [Compound 47a, N-Benzyl-2-[(2-{[(diphenylmethylidene)amino]oxy}ethyl)(methyl)amino]-4-hydroxybutanamide] |  |  | 18.2 | 14.8 | 100 μM: 87% | 16.6 | 36.3 |  |  |  |
| CC(O)CC(C(=O)NCc1ccc(F)cc1)N(C)CCC=C1c2ccccc2CCc2ccccc21 (centres unmarked) [2RS,4RS-39a, 2-((3-(10,11-Dihydro-5H-dibenzo[a,d][7]annulen-5-ylidene)propyl)(methyl)amino)-N-(4-fluorobenzyl)-4-hydroxypentanamide] | 100 μM: 51% |  | 14.8 | 25.1 | 100 μM: 110% |  | 12.6 |  |  |  |
| C[C@@H](C(=O)O)N(C)CCC=C1c2ccccc2C=Cc2ccccc21 [Compound 74, N-(3-(5H-Dibenzo[a,d][7]annulen-5-ylidene)propyl)-N-methylalanine] | 100 μM: 55% | 100 μM: 55% |  |  |  |  |  | 28.8 | 100 μM: 62% | 100 μM: 77% |
| C[C@@H](C(=O)OCc1ccccc1)N(C)CCC=C1c2ccccc2C=Cc2ccccc21 [Compound 72, Benzyl N-(3-(5H-Dibenzo[a,d][7]annulen-5-ylidene)propyl)-N-methylalaninate] | 100 μM: 98% | 100 μM: 63% |  |  | 100 μM: 109% |  |  |  | 100 μM: 86% | 100 μM: 97% |
| CC(O)CC(C(=O)NCc1ccccc1)N1CCC(=C2c3ccccc3CCc3ccccc32)CC1 (centres unmarked) [2RS,4SR-43a, N-Benzyl-2-(4-(10,11-dihydro-5H-dibenzo[a,d][7]annulen-5-ylidene)piperidin-1-yl)-4-hydroxypentanamide] |  |  | 28.2 | 15.8 | 100 μM: 73% | 19.5 | 58.9 |  |  |  |
| Cc1ccsc1C(=C1CCN([C@H](C[C@@H](C)O)C(=O)NCc2ccccc2)CC1)c1sccc1C (relative stereo) [2RS,4RS-37a, N-Benzyl-2-{4-[bis(3-methylthiophen-2-yl)methylidene]piperidin-1-yl}-4-hydroxypentanamide] |  |  | 41.7 | 72.4 | 100 μM: 74% | 26.3 | 24.5 |  |  |  |
| Cc1ccc(CNC(=O)C(CO)N(C)CCC=C2c3ccccc3CCc3ccccc32)cc1 (centres unmarked) [Compound 56e, 2-((3-(10,11-Dihydro-5H-dibenzo[a,d][7]annulen-5-ylidene)propyl)(methyl)amino)-3-hydroxy-N-(4-methylbenzyl)propanamide] |  |  | 20.4 | 11.2 |  | 18.6 | 28.8 |  |  |  |
